Several values for one entry are separate records, joined by “and”; a condition that tells them apart may be missing. Identical values can stand only once. Activity calls are given as the source filed them.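 Rule for the calls: active = compounds raising the signal whose fitted half-maximal concentration is at or below their top tested dose (cut at about 25 µM in these data); inconclusive = flat fit at 30 to 70% activity, or a poor fit; inactive = the rest.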
System: INS-1E rat beta cells, no cytokines, CellTiter-Glo ATP, 48 h
Assay: ATP level change in INS-1E without cytokines, dose response, counter-screen for beta-cell apoptosis protection project, INS-1E rat cells, ATP luminescence, cherry pick (AID 463229)

Going from `COc1ccc(C(=O)/C(C#N)=N/Nc2ccc([N+](=O)[O-])cc2)cc1` to `CCNC(=O)Nc1cc(S(=O)(=O)Nc2ccc(OC)cc2)ccc1N1CCOCC1`, the AC50 rises from 2.15 µM to 6.84 µM (3.2-fold).

Going from `Cc1ccccc1NC1=C/C(=N\S(=O)(=O)c2cccs2)c2ccccc2C1=O` to `CCN1CCN(C2=C(NS(=O)(=O)c3ccccc3)C(=O)c3ccccc3C2=O)CC1`, the AC50 rises from 1.79 µM to 20.3 µM (11-fold).

First: C/C(=N\Nc1ccc2nncn2n1)c1ccccn1
Second: COc1cccc(/C=N/Nc2nc3ccccc3[nH]2)c1O
The AC50 of the first is 3.3-fold lower: 2.72 µM for the first, 8.89 µM for the second.

First: COc1ccccc1N(CC(=O)N/N=C/c1c(O)ccc2ccccc12)S(C)(=O)=O
Second: COc1ccc(/C=N/NC(=O)c2nc(-c3ccccc3)n(-c3ccccc3)n2)c(O)c1
The AC50 of the first is 1.7-fold higher: 7.54 µM for the first, 4.37 µM for the second.

Compared with `CCCCn1c(NS(=O)(=O)c2ccccc2)c(S(=O)(=O)c2ccc(C)cc2)c2nc3ccccc3nc21`, `CCCCn1c(/C=N/Nc2nc3ccccc3[nH]2)nc2ccccc21` is 1.6-fold lower in AC50: 22.1 µM for the first, 14.1 µM for the second.

`CCOC(=O)c1cnc(-n2nc(C)cc2C)nc1NNc1cc(C)nc(-c2ccccc2)n1` and `Cc1ccc(Nc2cc(C)nc(NCc3ccccc3)n2)cc1` are within 1.5-fold of each other in AC50: 7.19 µM for the first, 8.01 µM for the second.

Compared with `N#CC(C#N)=C1C=CC=CN1/C(=C\c1ccco1)C(=O)c1ccccc1`, `CC(C)(C)C(=O)NC(=S)NNC(=O)c1ccc(-c2ccccc2)cc1` is 2.3-fold lower in AC50: 13 µM for the first, 5.71 µM for the second.

Compared with `O=C(c1ccc([N+](=O)[O-])s1)N1CCN(c2cccc(Cl)c2)CC1`, `O=C(c1cc(-c2cccc(Cl)c2)nc2ccccc12)N1CCN(c2ccccn2)CC1` is 1.6-fold lower in AC50: 19.3 µM for the first, 12.4 µM for the second.

First: O=[N+]([O-])c1ccc(/C=N/n2cnc3ccccc32)s1
Second: NC(N)=N/N=C/c1ccc(OCc2ccccc2)cc1
The AC50 of the first is 3.6-fold lower: 4.04 µM for the first, 14.7 µM for the second.

`CCCCCc1nc2c(c(=O)c3ccccc3n2C)c(=O)n1C1CCCCCC1` and `CCCCCCc1cc2cc(-c3nnc(-c4ccccc4O)o3)c(=O)oc2cc1O` are within 1.5-fold of each other in AC50: 6.84 µM for the first, 7.66 µM for the second.

First: CC(=O)c1ccc(OCc2cc(C(=O)N3CCCCC3c3cccnc3)no2)cc1 (configuration not stated)
Second: Cc1cccc(C(=O)Nc2ccc(C(=O)/C=C/c3cccnc3)cc2)c1
The AC50 of the first is 3-fold higher: 22.4 µM for the first, 7.53 µM for the second.

Compared with `CN(C)c1ccc(-c2cc(O)c3ncccc3c2)cc1`, `Cc1ccc(C[n+]2cccc(-c3ccccc3)c2)c(C)c1` is 5.3-fold lower in AC50: 26.9 µM for the first, 5.1 µM for the second.

Going from `COc1ccc(Nc2ccc3c(c2)=NC2(CCCCC2)[N+]=3[O-])cc1` to `COc1ccc(CNCCC(c2ccccc2)c2ccc3c(c2)OCO3)cc1` (configuration not stated), the AC50 rises from 7.8 µM to 15.2 µM (1.9-fold).

Compared with `CC(C)c1ccc(/C=C(\c2nc3ccccc3[nH]2)S(=O)(=O)c2ccccc2)cc1`, `OCCCNc1c2ccccc2nc2ccccc12` is 2-fold higher in AC50: 4.54 µM for the first, 9.09 µM for the second.

Going from `COc1cccc(/C=N/NC(=O)c2c(C)nc3ccc(Cl)cn23)c1O` to `CCN(CC)c1ccc(/C=N/NC(=O)c2cnccn2)c(O)c1`, the AC50 falls from 3.81 µM to 2.01 µM (1.9-fold).

`Fc1ccc(C[n+]2c(-c3ccccc3)cc(-c3ccccc3)cc2-c2ccccc2)cc1` and `O=C(Nc1cc(S(=O)(=O)N2CCCCC2)ccc1Cl)c1ccccc1NS(=O)(=O)c1ccc(F)cc1` are within 1.5-fold of each other in AC50: 3.99 µM for the first, 3.66 µM for the second.

Going from `FC(F)(F)c1ccccc1NC(=S)N1CCN(Cc2ccc3c(c2)OCO3)CC1` to `CN(C)CCCN(C(=O)COc1ccc(Cl)cc1)c1nc2cc3c(cc2s1)OCO3`, the AC50 rises from 7.35 µM to 15.6 µM (2.1-fold).

First: COc1cc(Cl)c(NC2=CC(=O)C(=O)c3ccccc32)c(OC)c1
Second: CC1=[N+](C)c2ccc3ccccc3c2C1(C)C
The AC50 of the first is 1.8-fold lower: 8.01 µM for the first, 14.6 µM for the second.

Compared with `O=C(Nc1cccnc1)c1cccs1`, `CCN(CC)CCNC(=O)c1ccc(NC(=O)c2cn(-c3ccccc3)nc2-c2cccs2)cc1` is 8.4-fold higher in AC50: 1.86 µM for the first, 15.7 µM for the second.

First: C=C(C=O)C[C@@H]1C[C@H](O)C2OC3C[C@]4(C)OC5/C=C\CC6OC7C(CC=CCC6OC5CCCC4OC3CC2O1)OC1CC2OC3CC(=O)OC3C[C@@H](C)C[C@@]2(C)OC1C[C@@H]7C (some centres not stated)
Second: Cc1ccc(NC(=O)C2=C(c3ccccc3)S(=O)(=O)CCS2(=O)=O)cc1
The AC50 of the first is 3.3-fold lower: 3.79 µM for the first, 12.6 µM for the second.

With `CC1CCC(C(C)C)C(OC(=O)Cn2c(-c3ccc(Br)cc3)[n+](C)c3ccccc32)C1` (configuration not stated) the AC50 was 3.86 µM and 4.4 µM.
`Cc1cc(C)n(-c2nc(NCCO)c3c4c(sc3n2)CCCC4)n1` was tested, and the AC50 was > 26 µM (inactive).
